Measured values: ChEMBL document CHEMBL3885881, “DrugMatrix”

Species: Rattus norvegicus
Experiment: DrugMatrix - Regimen: Daily Repeat
Type: toxicity, organism-based, Sprague-Dawley
Parameters: regimen Daily Repeat, gender Male, age 6-8 weeks
Details: in vivo, po, route oral GAVAGE, vehicle 100 % WATER; for ABSOLUTE BASOPHIL / ABSOLUTE EOSINOPHIL / ABSOLUTE LYMPHOCYTE / ABSOLUTE MONOCYTE / ABSOLUTE SEGMENTED NEUTROPHIL / BASOPHIL / EOSINOPHIL / ERYTHROCYTE COUNT / HEMATOCRIT / HEMOGLOBIN / LEUKOCYTE COUNT / LYMPHOCYTE / MEAN CORPUSCULAR HEMOGLOBIN / MEAN CORPUSCULAR HEMOGLOBIN CONCENTRATION / MEAN CORPUSCULAR VOLUME / MONOCYTE / NEUTROPHIL / NUCLEATED RED BLOOD CELLS / PLATELET COUNT: tissue Blood; for ALANINE AMINOTRANSFERASE / ALBUMIN / ALKALINE PHOSPHATASE / ASPARTATE AMINOTRANSFERASE / BLOOD UREA NITROGEN / CARBON DIOXIDE / CHLORIDE / CHOLESTEROL / CREATINE PHOSPHOKINASE / CREATININE / GLUCOSE / LIPASE / PHOSPHORUS / POTASSIUM / SODIUM / TOTAL BILIRUBIN / TOTAL PROTEIN / URIC ACID: tissue Plasma
[1] = 0 mg/kg, 72 h, dose level Control, time 3 day
[2] = 0 mg/kg, 120 h, dose level Control, time 5 day
[3] = 175 mg/kg, 72 h, dose level High, time 3 day

## CC(C)NCC(O)COc1cccc2ccccc12 (stereo unspecified) [PROPRANOLOL]
[1]
  ABSOLUTE BASOPHIL: 0 CELLS/uL
  ABSOLUTE EOSINOPHIL: 46 CELLS/uL
  ABSOLUTE LYMPHOCYTE: 10225.67 CELLS/uL
  ABSOLUTE MONOCYTE: 319.33 CELLS/uL
  ABSOLUTE SEGMENTED NEUTROPHIL: 1242.33 CELLS/uL
  BASOPHIL: 0%
  EOSINOPHIL: 0.33%
  ERYTHROCYTE COUNT: 5.17 x10E6/uL
  HEMATOCRIT: 33.43%
  HEMOGLOBIN: 12.55 G/DL
  LEUKOCYTE COUNT: 11.83 x10E3/uL
  LYMPHOCYTE: 86.5%
  MEAN CORPUSCULAR HEMOGLOBIN: 24.35 pg
  MEAN CORPUSCULAR HEMOGLOBIN CONCENTRATION: 37.57 G/DL
  MEAN CORPUSCULAR VOLUME: 64.8 fL
  MONOCYTE: 2.67%
  NEUTROPHIL: 10.5%
  NUCLEATED RED BLOOD CELLS: 0.17 /100WBC
  PLATELET COUNT: 1026.17 x10E3/uL
  ALANINE AMINOTRANSFERASE: 52.67 u/L
  ALBUMIN: 4.17 G/DL
  ALKALINE PHOSPHATASE: 331 u/L
  ASPARTATE AMINOTRANSFERASE: 92.33 u/L
  BLOOD UREA NITROGEN: 15.33 mg/dL
  CARBON DIOXIDE: 26.17 mmol/L
  CHLORIDE: 103.17 MEQ/L
  CHOLESTEROL: 73.67 mg/dL
  CREATINE PHOSPHOKINASE: 472.83 u/L
  CREATININE: 0.29 mg/dL
  GLUCOSE: 178.5 mg/dL
  LIPASE: 10.67 u/L
  PHOSPHORUS: 12.45 mg/dL
  POTASSIUM: 6.35 MEQ/L
  SODIUM: 144.27 MEQ/L
  TOTAL BILIRUBIN: 0.13 mg/dL
  TOTAL PROTEIN: 5.77 G/DL
  URIC ACID: 2.08 mg/dL
[2]
  ABSOLUTE BASOPHIL: 0 CELLS/uL
  ABSOLUTE EOSINOPHIL: 23.5 CELLS/uL
  ABSOLUTE LYMPHOCYTE: 12797.33 CELLS/uL
  ABSOLUTE MONOCYTE: 465.5 CELLS/uL
  ABSOLUTE SEGMENTED NEUTROPHIL: 1313.67 CELLS/uL
  BASOPHIL: 0%
  EOSINOPHIL: 0.17%
  ERYTHROCYTE COUNT: 5.76 x10E6/uL
  HEMATOCRIT: 36.72%
  HEMOGLOBIN: 13.72 G/DL
  LEUKOCYTE COUNT: 14.6 x10E3/uL
  LYMPHOCYTE: 87.5%
  MEAN CORPUSCULAR HEMOGLOBIN: 23.8 pg
  MEAN CORPUSCULAR HEMOGLOBIN CONCENTRATION: 37.35 G/DL
  MEAN CORPUSCULAR VOLUME: 63.72 fL
  MONOCYTE: 3.17%
  NEUTROPHIL: 9.17%
  NUCLEATED RED BLOOD CELLS: 0.33 /100WBC
  PLATELET COUNT: 1270.67 x10E3/uL
  ALANINE AMINOTRANSFERASE: 50.5 u/L
  ALBUMIN: 4.32 G/DL
  ALKALINE PHOSPHATASE: 339.67 u/L
  ASPARTATE AMINOTRANSFERASE: 88 u/L
  BLOOD UREA NITROGEN: 17 mg/dL
  CARBON DIOXIDE: 25 mmol/L
  CHLORIDE: 103.83 MEQ/L
  CHOLESTEROL: 71.33 mg/dL
  CREATINE PHOSPHOKINASE: 281.83 u/L
  CREATININE: 0.26 mg/dL
  GLUCOSE: 161.67 mg/dL
  LIPASE: 10.17 u/L
  PHOSPHORUS: 11.72 mg/dL
  POTASSIUM: 6.76 MEQ/L
  SODIUM: 145.17 MEQ/L
  TOTAL BILIRUBIN: 0.2 mg/dL
  TOTAL PROTEIN: 6.15 G/DL
  URIC ACID: 2 mg/dL
[3]
  ABSOLUTE BASOPHIL: 0 CELLS/uL
  ABSOLUTE EOSINOPHIL: 124 CELLS/uL
  ABSOLUTE LYMPHOCYTE: 11451.33 CELLS/uL
  ABSOLUTE MONOCYTE: 0 CELLS/uL
  ABSOLUTE SEGMENTED NEUTROPHIL: 824.67 CELLS/uL
  BASOPHIL: 0%
  EOSINOPHIL: 1%
  ERYTHROCYTE COUNT: 5.24 x10E6/uL
  HEMATOCRIT: 34.07%
  HEMOGLOBIN: 12.73 G/DL
  LEUKOCYTE COUNT: 12.4 x10E3/uL
  LYMPHOCYTE: 92%
  MEAN CORPUSCULAR HEMOGLOBIN: 24.3 pg
  MEAN CORPUSCULAR HEMOGLOBIN CONCENTRATION: 37.37 G/DL
  MEAN CORPUSCULAR VOLUME: 65.07 fL
  MONOCYTE: 0%
  NEUTROPHIL: 7%
  NUCLEATED RED BLOOD CELLS: 0 /100WBC
  PLATELET COUNT: 1403.33 x10E3/uL
  ALANINE AMINOTRANSFERASE: 49 u/L
  ALBUMIN: 4.2 G/DL
  ALKALINE PHOSPHATASE: 411 u/L
  ASPARTATE AMINOTRANSFERASE: 73.33 u/L
  BLOOD UREA NITROGEN: 14.33 mg/dL
  CARBON DIOXIDE: 24 mmol/L
  CHLORIDE: 103 MEQ/L
  CHOLESTEROL: 75.33 mg/dL
  CREATINE PHOSPHOKINASE: 253.33 u/L
  CREATININE: 0.21 mg/dL
  GLUCOSE: 152.33 mg/dL
  LIPASE: 9 u/L
  PHOSPHORUS: 13.13 mg/dL
  POTASSIUM: 6.83 MEQ/L
  SODIUM: 143.67 MEQ/L
  TOTAL BILIRUBIN: 0.13 mg/dL
  TOTAL PROTEIN: 5.77 G/DL
  URIC ACID: 2.97 mg/dL
